The AUC is concentration integrated over time. As a reminder, the Tmax is the time at which the peak concentration occurs. The term MRT denotes a mean duration of stay, worked out from the concentration-time curve. The clearance is the rate of elimination divided by the concentration. One may read the AUC(0-inf) as the area under the concentration-time curve extrapolated to infinity. A word on the CL/F: it is the apparent clearance, not corrected for the fraction that reaches the circulation.

Series [1] concerns Rhesus monkey. The series can be described thus: (§1) Clearance in Macaca mulatta (Rhesus monkey) at 4 mg/kg, iv. In kind it is ADME, organism-based. Also on record: dose 4 mg/kg, route intravenous. Conditions: in vivo.
Series [2] relates to Rhesus monkey. The series can be described thus: (§2) AUC (0 to infinity) in Macaca mulatta (Rhesus monkey) at 4 mg/kg, iv. The class given is ADME, organism-based, Plasma. The arrangement: time infinity, dose 4 mg/kg, route intravenous. To be noted: in vivo.
For series [3], the system named is Rhesus monkey. The series can be described thus: (§3) Clearance in Macaca mulatta (Rhesus monkey) at 7.5 mg/kg, administered intramuscularly. The class given is ADME, organism-based. The arrangement: dose 7.5 mg/kg, route intramuscular. To be noted: in vivo, im.
Series [4] deals with Rhesus monkey. The series can be described thus: (§4) AUC (0 to infinity) in Macaca mulatta (Rhesus monkey) at 7.5 mg/kg, administered intramuscularly. In kind it is ADME, organism-based, Plasma. Also on record: time infinity, dose 7.5 mg/kg, route intramuscular. Conditions: in vivo, im.
For series [5], the system named is Rhesus monkey. The series can be described thus: Volume of distribution in Macaca mulatta (Rhesus monkey) at 50 mg/kg, po. The arrangement: dose 50 mg/kg, route oral. In kind it is ADME, organism-based. To be noted: in vivo.
The test system of series [6] is Rattus norvegicus. The series can be described thus: (§5) AUC (0 to infinity) in Rattus norvegicus Sprague-Dawley (rat) at 30 mg/kg, administered intramuscularly. The class given is ADME, organism-based, Plasma. The arrangement: time infinity, dose 30 mg/kg, route intramuscular. Conditions: in vivo, im.
In series [7] the test system is Rattus norvegicus. The series can be described thus: (§6) Clearance in Rattus norvegicus Sprague-Dawley (rat) at 17.5 mg/kg, administered intramuscularly. The class given is ADME, organism-based. Also on record: dose 17.5 mg/kg, route intramuscular. Conditions: in vivo, im.
A short description of series [8]: Tmax in Rattus norvegicus Sprague-Dawley (rat) at 17.5 mg/kg, administered intramuscularly. In kind it is ADME, organism-based. The arrangement: dose 17.5 mg/kg, route intramuscular. Conditions: in vivo, im.
Series [9] has as its system Rattus norvegicus. The series can be described thus: (§7) AUC (0 to infinity) in Rattus norvegicus Sprague-Dawley (rat) at 17.5 mg/kg, administered intramuscularly. The class given is ADME, organism-based, Plasma. The arrangement: dose 17.5 mg/kg, route intramuscular, time infinity. To be noted: in vivo, im.
Series [10] has as its system Rattus norvegicus. The series can be described thus: (§8) Clearance in Rattus norvegicus Sprague-Dawley (rat) at 9 mg/kg, administered intramuscularly. The class given is ADME, organism-based. Also on record: dose 9 mg/kg, route intramuscular. Conditions: in vivo, im.
Series [11] concerns Rattus norvegicus. The series can be described thus: (§9) AUC (0 to infinity) in Rattus norvegicus Sprague-Dawley (rat) at 9 mg/kg, administered intramuscularly. The class given is ADME, organism-based, Plasma. Also on record: time infinity, dose 9 mg/kg, route intramuscular. To be noted: in vivo, im.
Series [12] relates to Rhesus monkey. The series can be described thus: (§10) AUC (0 to infinity) in Macaca mulatta (Rhesus monkey) at 50 mg/kg, po. The class given is ADME, organism-based, Plasma. Also on record: time infinity, dose 50 mg/kg, route oral. Conditions: in vivo.
In series [13] the test system is Rattus norvegicus. The series can be described thus: (§11) Clearance in Rattus norvegicus Sprague-Dawley (rat) at 9 mg/kg, po. The class given is ADME, organism-based. Also on record: dose 9 mg/kg, route oral. To be noted: in vivo.
Series [14] has as its system Rattus norvegicus. The series can be described thus: (§12) AUC (0 to infinity) in Rattus norvegicus Sprague-Dawley (rat) at 9 mg/kg, po. The class given is ADME, organism-based, Plasma. Conditions: in vivo. Also on record: time infinity, dose 9 mg/kg, route oral.
The subject of series [15] is Rattus norvegicus. The series can be described thus: (§13) Clearance in Rattus norvegicus Sprague-Dawley (rat) at 2 mg/kg, iv. The arrangement: dose 2 mg/kg, route intravenous. In kind it is ADME, organism-based. Conditions: in vivo.
Series [16] has as its system Rattus norvegicus. The series can be described thus: (§14) AUC (0 to infinity) in Rattus norvegicus Sprague-Dawley (rat) at 2 mg/kg, iv. Conditions: in vivo. The arrangement: time infinity, dose 2 mg/kg, route intravenous. The class given is ADME, organism-based, Plasma.
The subject of series [17] is Rattus norvegicus. The series can be described thus: Clearance in Rattus norvegicus Sprague-Dawley (rat) at 30 mg/kg, po. The arrangement: dose 30 mg/kg, route oral. In kind it is ADME, organism-based. Conditions: in vivo.
Series [18] concerns Rattus norvegicus. The series can be described thus: (§15) AUC (0 to infinity) in Rattus norvegicus Sprague-Dawley (rat) at 30 mg/kg, po. The class given is ADME, organism-based, Plasma. Also on record: time infinity, dose 30 mg/kg, route oral. Conditions: in vivo.
A short description of series [19]: Tmax in Rattus norvegicus Sprague-Dawley (rat) at 30 mg/kg, po. To be noted: in vivo. In kind it is ADME, organism-based. Also on record: dose 30 mg/kg, route oral.
Series [20] relates to Rattus norvegicus. The series can be described thus: (§16) Clearance in Rattus norvegicus Sprague-Dawley (rat) at 17.5 mg/kg, po. The class given is ADME, organism-based. The arrangement: dose 17.5 mg/kg, route oral. To be noted: in vivo.
Series [21] in a line: Mean residence time in Rattus norvegicus Sprague-Dawley (rat) at 17.5 mg/kg, po. Also on record: dose 17.5 mg/kg, route oral. The class given is ADME, organism-based. To be noted: in vivo.
Series [22] has as its system Rattus norvegicus. The series can be described thus: Dose normalized AUC in Rattus norvegicus Sprague-Dawley (rat) at 17.5 mg/kg, po. To be noted: in vivo. The arrangement: dose 17.5 mg/kg, route oral. In kind it is ADME, organism-based.
Series [23] relates to Rattus norvegicus. The series can be described thus: (§17) AUC (0 to infinity) in Rattus norvegicus Sprague-Dawley (rat) at 17.5 mg/kg, po. The class given is ADME, organism-based, Plasma. Also on record: time infinity, dose 17.5 mg/kg, route oral. To be noted: in vivo.
The subject of series [24] is Rattus norvegicus. The series can be described thus: (§18) Clearance in Rattus norvegicus Sprague-Dawley (rat) at 30 mg/kg, administered intramuscularly. In kind it is ADME, organism-based. The arrangement: dose 30 mg/kg, route intramuscular. To be noted: in vivo, im.
Series [25] is described as follows: as §1. In kind it is ADME, organism-based. Also on record: dose 4 mg/kg, route intravenous. To be noted: in vivo.
Series [26] in a line: as §2. In kind it is ADME, organism-based, Plasma. The arrangement: time infinity, dose 4 mg/kg, route intravenous. Conditions: plasma.
Series [27] is described as follows: as §3. The class given is ADME, organism-based. Also on record: dose 7.5 mg/kg, route intramuscular. To be noted: in vivo, im.
The nature of series [28]: as §4. The arrangement: time infinity, dose 7.5 mg/kg, route intramuscular. To be noted: plasma, im. The class given is ADME, organism-based, Plasma.
Series [29] in a line: as §5. In kind it is ADME, organism-based, Plasma. Also on record: time infinity, dose 30 mg/kg, route intramuscular. To be noted: Sprague-Dawley, plasma, im.
Series [30] is described as follows: as §6. The arrangement: dose 17.5 mg/kg, route intramuscular. To be noted: Sprague-Dawley, in vivo, im. In kind it is ADME, organism-based.
The nature of series [31]: as §7. The class given is ADME, organism-based, Plasma. The arrangement: dose 17.5 mg/kg, route intramuscular, time infinity. Conditions: Sprague-Dawley, plasma, im.
Series [32] is described as follows: as §8. In kind it is ADME, organism-based. The arrangement: dose 9 mg/kg, route intramuscular. To be noted: Sprague-Dawley, in vivo, im.
Series [33] in a line: as §9. In kind it is ADME, organism-based, Plasma. Also on record: time infinity, dose 9 mg/kg, route intramuscular. To be noted: Sprague-Dawley, plasma, im.
A short description of series [34]: as §10. The class given is ADME, organism-based, Plasma. Also on record: time infinity, dose 50 mg/kg, route oral. To be noted: plasma.
Series [35] can be described thus: as §11. To be noted: Sprague-Dawley, in vivo. Also on record: dose 9 mg/kg, route oral. The class given is ADME, organism-based.
Series [36] is described as follows: as §12. Also on record: time infinity, dose 9 mg/kg, route oral. In kind it is ADME, organism-based, Plasma. Conditions: Sprague-Dawley, plasma.
A short description of series [37]: as §13. In kind it is ADME, organism-based. Conditions: Sprague-Dawley, in vivo. The arrangement: dose 2 mg/kg, route intravenous.
The nature of series [38]: as §14. In kind it is ADME, organism-based, Plasma. The arrangement: time infinity, dose 2 mg/kg, route intravenous. Conditions: Sprague-Dawley, plasma.
Series [39] in a line: as §15. To be noted: Sprague-Dawley, plasma. The arrangement: time infinity, dose 30 mg/kg, route oral. In kind it is ADME, organism-based, Plasma.
Series [40] can be described thus: as §16. The class given is ADME, organism-based. Also on record: dose 17.5 mg/kg, route oral. To be noted: Sprague-Dawley, in vivo.
Series [41] is described as follows: as §17. In kind it is ADME, organism-based, Plasma. The arrangement: time infinity, dose 17.5 mg/kg, route oral. To be noted: Sprague-Dawley, plasma.
Series [42] can be described thus: as §18. The arrangement: dose 30 mg/kg, route intramuscular. Conditions: Sprague-Dawley, in vivo, im. In kind it is ADME, organism-based.

As for `CCO[C@@H]1O[C@@H]2O[C@]3(C)CC[C@H]4[C@H](C)CC[C@@H]([C@H]1C)[C@@]24OO3` [ALPHA-ARTEETHER], the CL with Rhesus monkey [1] is 26.7 mL/min/kg; with Rhesus monkey [3], 61.7 mL/min/kg; in the series on Rattus norvegicus [7] it was 68.3 mL/min/kg; with Rattus norvegicus [10], 40 mL/min/kg; with Rattus norvegicus [13], 600 mL/min/kg; in the series with Rattus norvegicus [15], 75 mL/min/kg. Also, the CL was determined as 1330 mL/min/kg in the series with Rattus norvegicus [17], 1708 mL/min/kg in the series with Rattus norvegicus [20] and 247 mL/min/kg in the series on Rattus norvegicus [24]. The AUC with Rhesus monkey [2] turned out to be 754.4 ng·h/mL; in the series with Rhesus monkey [4], 641.8 ng·h/mL; in the series on Rattus norvegicus [6], 601.1 ng·h/mL; in the series with Rattus norvegicus [9], 1247.1 ng·h/mL; in the series on Rattus norvegicus [11], 1058.5 ng·h/mL; with Rhesus monkey [12], 6.6 ng·h/mL. In addition, the AUC in the series with Rattus norvegicus [14] stood at 73.8 ng·h/mL; in the series on Rattus norvegicus [16], 131.7 ng·h/mL; in the series on Rattus norvegicus [18], 111.5 ng·h/mL; in the series on Rattus norvegicus [23] it was 50.9 ng·h/mL. The compound further gave a Vd in the series with Rhesus monkey [5] of 7148.8 L/kg. The Tmax is 30 min in series [8] and 5 min in series [19]. This compound displayed an MRT in series [21] of 114 min. In the series on Rattus norvegicus [22], the AUC/dose is 9.7 ng·h/mL.

As for `CCO[C@H]1O[C@@H]2O[C@@]3(C)CC[C@H]4[C@H](C)CC[C@@H]([C@H]1C)[C@@]24OO3` [ARTEMOTIL], the clearance was 38.3 mL/min/kg in series [25] and 127 mL/min/kg in [37]. Moreover, the AUC(0-inf) stood at 1220 ng·h/mL in series [26]; 746 ng·h/mL in series [28]; 407 ng·h/mL in series [29]; 2410 ng·h/mL in series [31]; 1180 ng·h/mL in series [33]; 8.5 ng·h/mL in [34]. In addition, the AUC(0-inf) in series [36] was 46.8 ng·h/mL; in series [38], 185 ng·h/mL; in series [39] it was 25.6 ng·h/mL; in [41] it was 33.9 ng·h/mL. Moreover, the CL/F in [27] is 118 mL/min/kg; in series [30], 83.3 mL/min/kg; in series [32], 86.7 mL/min/kg; in [35], 2120 mL/min/kg; in series [40], 5060 mL/min/kg; in series [42], 762 mL/min/kg. In addition, the Tmax in series [8] was 30 min; in [19], 5 min. Besides, the MRT in series [21] was 414 min. In the series with Rattus norvegicus [22], this compound had an AUC/dose of 2.8 ng·h/mL.
